Where a name gives a salt, the structure may show the parent alone. Residues, ends and D or L forms follow the SMILES beside them. *: point of attachment. pNA = O=[N+]([O-])c1ccc(N*)cc1; Piperidide = C1CCN(*)CC1; Bz = O=C(c1ccccc1)*; NHiPr = CC(C)N*; OiPr = CC(C)O*
B1: factor Xa (Bos taurus) (protein)
chain 1: IVGGRDCAEGECPWQALLVNEENEGFCGGTILNEFYVLTAAHCLHQAKRFTVRVGDRNTEQEEGNEMAHEVEMTVKHSRFVKETYDFDIAVLRLKTPIRFRRNVAPACLPEKDWAEATLMTQKTGIVSGFGRTHEKGRLSSTLKMLEVPYVDRSTCKLSSSFTITPNMFCAGYDTQPEDACQGDSGGPHVTRFKDTYFVTGIVSWGEGCARKGKFGVYTKVSNFLKWIDKIMKARAGAAGSRGHSEAPATWTVPPPLPL
chain 2: ANSFLEEVKQGNLERECLEEACSLEEAREVFEDAEQTDEFWSKYKDGDQCEGHPCLNQGHCKDGIGDYTCTCAEGFEGKNCEFSTREICSLDNGGCDQFCREERSEVRCSCAHGYVLGDDSKSCVSTERFPCGKFTQGRS
notes: purchased Diagnostic Reagents (product 'Diagen', 6.4 Denson U)

How the values were obtained:
Assay type in all cases: biochemical
factor Xa [1] = biological target: T1, factor Xa (Bos taurus, UniProt P00743); assay: Determination of Km and Vmax (Lineweaver-Burk, hydrolysis of chromogenic substrate read at 405 nm); conditions: value is Vmax multiplied by 10^8; Tris buffer pH 8.3, I 0.25, 37° C., enzyme Diagen
T1 construct: purchased Diagnostic Reagents (product 'Diagen', 6.4 Denson U)
Method: (§1) Km and Vmax are obtained by means of the Lineweaver-Burk equation: [formula] Enzyme and substrate are mixed in a buffer solution and the rate of hydrolysis is measured spectrophotometrically. The substrate concentration (So) is varied while the enyzme concentration is kept constant. The reciprocal velocity l/vo is then plotted against the reciprocal substrate concentration l/So, and Km and Vmax are estimated (Table 1) from the obtained Lineweaver-Burk diagram.
(§2) Buffer Tris (tris(hydroxymethyl)aminomethane)
(§3) 0.05 mole/l, pH = 8.3, I = 0.25 (NaCl)
(§4) Enzyme Diagen (6.4 Denson U) (Diagnostic Reagents)
(§5) . 1 ampule is dissolved in 2 ml of water.
(§6) The substrate is dissolved in water to 2 mmole/l.
(§7) Mix and read change of absorbance (Δ OD/min) at […]

factor Xa [2] = biological target: T1, factor Xa; assay: Relative activity (rate of substrate hydrolysis, Δ OD/min at 405 nm); conditions: S-2222 = 100, 250 μl of 2 mmole/l substrate in 2500 μl, Tris buffer pH 8.3, 37° C.
Method: as §2, §3, §4, §5, §6
Substrate, +37° C.250 μl
as §7

[3] = substrate: CCOC(=O)CC[C@H](NC(=O)[C@@H](NC(=O)c1ccccc1)[C@@H](C)CC)C(=O)NCC(=O)N[C@@H](CCCNC(=N)N)C(=O)Nc1ccc([N+](=O)[O-])cc1; assay: Determination of Km and Vmax (Lineweaver-Burk, hydrolysis of chromogenic substrate read at 405 nm); conditions: other: value is Km multiplied by 10^4, Tris buffer 0.05 mole/l, pH 8.3, I 0.25 (NaCl), 37° C., enzyme Diagen, 37.0 °C
Method: as §1, §2, §3, §4, §5, §6, §7

[4] = substrate: CC[C@H](C)[C@H](NC(=O)c1ccccc1)C(=O)N[C@@H](CCC(=O)N1CCCCC1)C(=O)NCC(=O)N[C@@H](CCCNC(=N)N)C(=O)Nc1ccc([N+](=O)[O-])cc1; assay: as above; conditions: other: value is Km multiplied by 10^4, Tris buffer 0.05 mole/l, pH 8.3, I 0.25 (NaCl), 37° C., enzyme Diagen, 37.0 °C
Method: as §1, §2, §3, §4, §5, §6, §7

[5] = substrate: CC[C@H](C)[C@H](NC(=O)c1ccccc1)C(=O)N[C@@H](CCC(=O)NC(C)C)C(=O)NCC(=O)N[C@@H](CCCNC(=N)N)C(=O)Nc1ccc([N+](=O)[O-])cc1; assay: as above; conditions: other: value is Km multiplied by 10^4, Tris buffer 0.05 mole/l, pH 8.3, I 0.25 (NaCl), 37° C., enzyme Diagen, 37.0 °C
Method: as §1, §2, §3, §4, §5, §6, §7

[6] = substrate: CC[C@H](C)[C@H](NC(=O)c1ccccc1)C(=O)N[C@@H](CCC(=O)O)C(=O)NCC(=O)N[C@@H](CCCN=C(N)N)C(=O)Nc1ccc([N+](=O)[O-])cc1; assay: as above; conditions: other: stated in the text; pH 8.3
Method: as §1, §2, §3, §4, §5, §6, §7

[7] = substrate: CC[C@H](C)[C@H](NC(=O)c1ccccc1)C(=O)N[C@@H](CCC(=O)OC(C)C)C(=O)NCC(=O)N[C@@H](CCCNC(=N)N)C(=O)Nc1ccc([N+](=O)[O-])cc1; assay: as above; conditions: other: value is Km multiplied by 10^4, Tris buffer 0.05 mole/l, pH 8.3, I 0.25 (NaCl), 37° C., enzyme Diagen, 37.0 °C
Method: as §1, §2, §3, §4, §5, §6, §7

[8] = substrate: CC[C@H](C)[C@H](NC(=O)c1ccccc1)C(=O)N[C@@H](CCC(=O)OC)C(=O)NCC(=O)N[C@@H](CCCNC(=N)N)C(=O)Nc1ccc([N+](=O)[O-])cc1; assay: as above; conditions: other: value is Km multiplied by 10^4, Tris buffer 0.05 mole/l, pH 8.3, I 0.25 (NaCl), 37° C., enzyme Diagen, 37.0 °C
Method: as §1, §2, §3, §4, §5, §6, §7

Row | Molecule | Vmax · 10^8 (factor Xa [1]) | Relative activity (factor Xa [2]) | further results
1 | CC[C@H](C)[C@H](NC(=O)c1ccccc1)C(=O)N[C@@H](CCC(=O)OC(C)C)C(=O)NCC(=O)N[C@@H](CCCNC(=N)N)C(=O)Nc1ccc([N+](=O)[O-])cc1 [Ex. 3, Bz-Ile-Glu(OisoPr)-Gly-Arg-pNA.HCl] (Bz-IE(OiPr)GR-pNA) | 7.1 mol/min · U | 220 | 
2 | CC[C@H](C)[C@H](NC(=O)c1ccccc1)C(=O)N[C@@H](CCC(=O)N1CCCCC1)C(=O)NCC(=O)N[C@@H](CCCNC(=N)N)C(=O)Nc1ccc([N+](=O)[O-])cc1 [Ex. 7] (Bz-IE(Piperidide)GR-pNA) | 8.6 mol/min · U | 300 | 
3 | CCOC(=O)CC[C@H](NC(=O)[C@@H](NC(=O)c1ccccc1)[C@@H](C)CC)C(=O)NCC(=O)N[C@@H](CCCNC(=N)N)C(=O)Nc1ccc([N+](=O)[O-])cc1 [Ex. 2, Bz-Ile-Glu(OEt)-Gly-Arg-pNA.HCl] (Bz-IE(OEt)GR-pNA) | 7.5 mol/min · U | 200 | 
4 | CC[C@H](C)[C@H](NC(=O)c1ccccc1)C(=O)N[C@@H](CCC(=O)OC)C(=O)NCC(=O)N[C@@H](CCCNC(=N)N)C(=O)Nc1ccc([N+](=O)[O-])cc1 [Ex. 1, Bz-Ile-Glu(OMe)-Gly-Arg-pNA.HCl] (Bz-IE(OMe)GR-pNA) | 8.1 mol/min · U | 230 | 
5 | CC[C@H](C)[C@H](NC(=O)c1ccccc1)C(=O)N[C@@H](CCC(=O)O)C(=O)NCC(=O)N[C@@H](CCCNC(=N)N)C(=O)Nc1ccc([N+](=O)[O-])cc1 [Example S-2222, Benzoyl-Ile-Glu-Gly-Arg-p-nitroanilide, reference compound] (Bz-IEGR-pNA) | 8.6 mol/min · U | 100 | 
6 | CC[C@H](C)[C@H](NC(=O)c1ccccc1)C(=O)N[C@@H](CCC(=O)NC(C)C)C(=O)NCC(=O)N[C@@H](CCCNC(=N)N)C(=O)Nc1ccc([N+](=O)[O-])cc1 [Ex. 6] (Bz-IE(NHiPr)GR-pNA) | 20.0 mol/min · U | 340 | 
7 | B1 |  |  | Km [3]: 290 µM; Km [4]: 170 µM; Km [5]: 560 µM; Km [6]: 830 µM; Km [7]: 210 µM; Km [8]: 260 µM

Reference: patent US4276375A, “Determination of serine proteases” (AB Kabi, priority 1976, dated 1981)
